Assays:
[1] = tested on: SCC cells; assay: Real-time PCR Heat Shock Protein Array; format: cell-based; conditions: 100 μM
Text: (§1) The control cells were untreated cells.
Heat Shock Arrays were run for SCC cells and the data of regulated genes is summarized below in Table 13.

[2] = tested on: SCC cells; assay: Real-time PCR Diabetes Array; format: cell-based; conditions: 100 μM
Text: as §1

[3] = tested on: Pancreatic Cancer Cells (PaCa2); assay: Real-time PCR Apoptosis Array; format: cell-based; conditions: 100 uM Q10, various times
Procedure: Experiments were carried out essentially as described above.

[4] = tested on: ATP Citrate Lyase (ACL); assay: Western blot, ATP Citrate Lyase levels in normal and cancer cells; format: cell-based, human
Procedure: The whole cell pellets were resuspended one at a time in 1 mL of C7 buffer and transferred to labeled 15 mL tubes. The samples were then sonicated in the cold room on ice using 6 sonic pulses with the setting at #14. The samples were spun for a short time to 2500 g after sonication and the samples transferred to 2 ml tubes. The pH was verified of each sample (pH should be 9.0) using the foam remaining in the […] sample tubes.
After transfer each of the blots was placed in between 2 Whatman Filter papers and dried for 15-20 minutes. After drying the blots were labeled with the date, the type of samples and either blot 1 or blot 2 using a HB pencil. The molecular weight markers were outlined with the pencil and with single lines for the blue and a doublet for the colored markers. The blots were activated with methanol for 5 seconds, washed with water for 5 minutes, and TBST for 15 minutes. The blots were blocked for 1 hour with 5% blocking reagent in TBS-T at room temperature and then washed 3 times with TBS-T (1×-15′; 2×5′ each). Blot 1 was probed with the primary antibody for IDH1 (Cell Signaling #3997) in TBST with 5% BSA (at 1:1000 dilutions) and blot 2 with the rabbit polyclonal antibody for ATP Citrate Lyase in 5% BSA (Cell Signaling #4332) at 1:1000 dilution by incubation overnight at 4 deg C. with shaking. After the overnight incubation with primary antibodies, the blots were washed 3 times with TBS-T (1×-15′; 2×5′ each) and probed with the secondary antibody (antirabbit; 1:10,000 dilution) for 1 h on the orbital tilting shaker at room temperature. After 1 h of incubation with secondary antibodies, the blots were washed 3 times with TBS-T (1×-15′; 2×5′ each) and then incubated with ECF reagent for 5 mins and then each blot scanned with 5100 Fuji Laser scanner at 25 uM resolution, 16 bit, green laser, at 400V and at 500 V.
The samples were processed and run on a 4-12% Bis-Tris Novex NuPAGE gel as described above. The gels were run, transferred and stained essentially as described above.
The Isocitrate dehydrogenase blot was stripped by incubating for 30 minutes with methanol, followed by two 10 minute washes with TBS-T, then 30 minutes of incubation with stripping buffer at 50 deg C., and followed by two washes with 100 ml or more of TBS-T for 30′ each. The blot was scanned in laser scanner to check for complete stripping. The blot was activated with methanol for 5 seconds, washed with water for 5 minutes, and TBST for 15 minutes. The blot was blocked for 1 hour with 5% blocking reagent in TBS-T at room temperature and then washed 3 times with TBS-T (1×-15′; 2×5′ each). This was then probed with the rabbit polyclonal antibody for ATP Citrate Lyase in 5% BSA (Cell Signaling #4332) at 1:1000 dilution overnight at 4 deg C. with shaking. After the overnight incubation with primary antibody for ATP Citrate Lyase, the membrane was washed 3 times with TBS-T (1×-15′; 2×5′ each) and probed with the secondary antibody (antirabbit; 1:10,000 dilution) for 1 h on the orbital tilting shaker at room temperature. After 1 h of incubation with secondary antibodies, the blot was washed 3 times with TBS-T (1×-15′; 2×5′ each) and then incubated with ECF reagent for 5 minutes and then each blot scanned with 5100 Fuji Laser scanner at 25 uM resolution, 16 bit, green laser, at 400V and at 500 V.
In this experiment (western blot experiment 3), and in all of the experiments described below in this Example (i.e., western blot experiments 4 through 9), the cells were additionally treated with either 5 mM glucose (“5G”) or 22 mM glucose (“22G”). The samples derived from the cells were processed and run on a 4-12% Bis-Tris Novex NuPAGE gel as described above. The gels were run, transferred and stained essentially as described above.
The levels of IDH1, ATP citrate lyase and actin levels were determined by probing the blots with primary antibodies for IDH1, ATP citrate lyase and actin, essentially as described above.

[5] = tested on: melanoma cell; assay: Bcl2 level after CoQ-10 in the presence of VEGF; format: cell-based
[6] = tested on: normal fibroblast; assay: Bcl2 level after co-administration of CoQ-10 and VEGF; format: cell-based; conditions: co-administration with VEGF

`COC1=C(OC)C(=O)C(C/C=C(\C)CC/C=C(\C)CC/C=C(\C)CC/C=C(\C)CC/C=C(\C)CC/C=C(\C)CC/C=C(\C)CC/C=C(\C)CC/C=C(\C)CCC=C(C)C)=C(C)C1=O` [Q10, Coenzyme Q10] was tested, and the “DNAJA1 gene Regulation” value ([1]; at 6 hours) was “Up regulated at 6”, the “DNAJB5 gene Regulation” value ([1]; at 6 hours) was “Down regulated” and the “DNAJB13 gene Regulation” value ([1]; at 6 hours) was “Down regulated”. The “DNAJC4 gene Regulation” value ([1]; at 6 hours) was “Down regulated”, the “DNAJC5B gene Regulation” value ([1]; at 6 hours) was “Down regulated” and the “DNAJC12 gene Regulation” value ([1]; at 6 hours) was “Down regulated”. For the same compound, the “HSPA8 gene Regulation” value ([1]; at 6 hours) was “Up regulated at 6”, the “HSPH1 gene Regulation” value ([1]; at 6 hours) was “Up regulated at 6” and the “CCT6B gene Regulation” value ([1]; at 24 hours) was “Down regulated”. For the same compound, the “TNFRSF1A gene Regulation” value ([2]; at 6 and 24 hours) was “Down regulated”, the “G6PD gene Regulation” value ([2]; at 6 hours) was “Down regulated” and the “ICAM1 gene Regulation” value ([2]; at 6 hours) was “Down regulated”. For the same compound, the “INPPL1 gene Regulation” value ([2]; at 6 hours) was “Down regulated”, the “NOS3 gene Regulation” value ([2]; at 6 hours) was “Down regulated” and the “PIK3CD gene Regulation” value ([2]; at 6 hours) was “Down regulated”. The “PPARA gene Regulation” value ([2]; at 6 hours) was “Down regulated”, the “PYGL gene Regulation” value ([2]; at 6 hours) was “Down regulated” and the “SREBF1 gene Regulation” value ([2]; at 6 hours) was “Down regulated”. For the same compound, the “STXBP2 gene Regulation” value ([2]; at 6 hours) was “Down regulated”, the “TNF gene Regulation” value ([2]; at 6 hours) was “Down regulated” and the “VEGFA gene Regulation” value ([2]; at 6 hours) was “Down regulated”. The “genes modulated by Q10 treatment (Apoptosis arrays)” value [3] was “ABL1, AKT1, Bcl2L1, BclAF1, CASP1, CASP2, CASP6, CIDEA, FADD, LTA, TNF, TNFSF10A and TNFSF10”, the “ATPCL Average Normalized Intensity” value ([4]; HDFa, HDF-50) was roughly 17500 and the “ATPCL Average Normalized Intensity” value ([4]; HDFa, HDF-100) was roughly 25000. It also gave an ATP Citrate Lysase Normalized Intensity as % ([4]; HepG2, Hep5g48-50) of 85%, an ATP Citrate Lysase Normalized Intensity as % ([4]; HepG2, Hep5g48-100) of 79% and an ATP Citrate Lysase Normalized Intensity as % ([4]; HepG2, Hep22G48-50) of 129%. The ATP Citrate Lysase Normalized Intensity as % ([4]; HepG2, Hep22G48-100) was 209%, the “ATPCL Average Normalized Intensity” value ([4]; MCF-7, MCF-50) was roughly 7500 and the “ATPCL Average Normalized Intensity” value ([4]; MCF-7, MCF-100) was roughly 12500. The ATP Citrate Lysase Normalized Intensity as % ([4]; PACA2, PACA5g48-50) was 68%, the ATP Citrate Lysase Normalized Intensity as % ([4]; PACA2, PACA5g48-100) was 42% and the ATP Citrate Lysase Normalized Intensity as % ([4]; PACA2, PACA22G48-50) was 112%. For the same compound, the ATP Citrate Lysase Normalized Intensity as % ([4]; PACA2, PACA22G48-100) was 174%, the “expression of ACL enzymes” value ([4]; cancer cells) was “dose-dependent decrease” and the “expression of ACL” value ([4]; normal cells) was “trend towards increased expression”. For the same compound, the “level of Bcl2” value [5] was “decreased level” and the “levels of Bcl2” value [6] was “no effect”.

— patent US20110020312A1, “METHODS FOR TREATMENT OF METABOLIC DISORDERS USING EPIMETABOLIC SHIFTERS, MULTIDIMENSIONAL INTRACELLULAR MOLECULES, OR ENVIRONMENTAL INFLUENCERS” (priority 2009, published 2011)
